ChEMBL document CHEMBL1201862, “PubChem BioAssay data set” (2004)
Activity calls are given as the source filed them.

How the values were obtained:
Cytochrome P450 3A4 = Cytochrome P450 3A4 (Homo sapiens, UniProt P08684); conditions: Potency;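 note: confirmatory qHTS run detecting inhibitors and substrates of CYP3A4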
[1] = A cytotoxicity screen of small molecule inhibitors of the PhoP region in Salmonella typhi identified in the primary screen. [Related pubchem assays: 1850, 1864, 1985 ]; assay type: functional
[2] = ADAM10 protease inhibitors, dose response, selectivity assay for ADAM17 exosite inhibitor project, biochemical, FRET peptide substrate, recombinant human ADAM10 (AID 743259);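 note: ADAM10 enzyme cleaving a FRET peptide substrate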
[3] = target: Disintegrin and metalloproteinase domain-containing protein 17 (Homo sapiens, UniProt P78536); test: exosite inhibitors of ADAM17, dose response, biochemical (AID 743260)
Disintegrin and metalloproteinase domain-containing protein 17, sequence (P78536 whole entry, the tested form may be a part): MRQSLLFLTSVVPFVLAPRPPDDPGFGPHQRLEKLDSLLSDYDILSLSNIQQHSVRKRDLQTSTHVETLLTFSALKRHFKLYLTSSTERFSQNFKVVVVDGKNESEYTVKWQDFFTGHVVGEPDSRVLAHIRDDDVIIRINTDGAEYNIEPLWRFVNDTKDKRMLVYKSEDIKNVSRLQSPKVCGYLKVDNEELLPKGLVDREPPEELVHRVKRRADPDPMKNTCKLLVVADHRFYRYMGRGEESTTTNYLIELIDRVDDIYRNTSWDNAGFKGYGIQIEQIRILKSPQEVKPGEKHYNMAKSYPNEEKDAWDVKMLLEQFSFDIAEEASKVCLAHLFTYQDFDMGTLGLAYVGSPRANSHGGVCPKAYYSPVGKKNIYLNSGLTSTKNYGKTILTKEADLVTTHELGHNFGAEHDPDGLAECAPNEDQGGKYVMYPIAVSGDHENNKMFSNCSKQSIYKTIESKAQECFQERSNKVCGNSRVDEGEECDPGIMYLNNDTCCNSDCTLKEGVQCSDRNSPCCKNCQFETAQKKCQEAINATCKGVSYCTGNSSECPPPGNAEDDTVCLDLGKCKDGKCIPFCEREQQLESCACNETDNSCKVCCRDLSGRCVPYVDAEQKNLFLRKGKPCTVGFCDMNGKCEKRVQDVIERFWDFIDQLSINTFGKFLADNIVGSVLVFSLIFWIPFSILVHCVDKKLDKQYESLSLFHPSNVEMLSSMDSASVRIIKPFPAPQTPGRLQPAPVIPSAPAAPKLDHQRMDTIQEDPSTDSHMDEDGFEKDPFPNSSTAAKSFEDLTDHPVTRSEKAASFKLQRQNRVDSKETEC

[4] = HEp-2 cell cytotoxicity, dose response, cytotoxicity control for RSV inhibitor project, HTS (AID 2410); assay type: functional; conditions: human respiratory syncytial virus
[5] = M. tuberculosis H37Rv growth inhibitors, H37Rv strain (AID 1626); assay type: functional
Protein skinhead-1 = target: T1, Protein skinhead-1 (Caenorhabditis elegans, UniProt P34707); assay type: functional
T1 sequence (P34707 whole entry): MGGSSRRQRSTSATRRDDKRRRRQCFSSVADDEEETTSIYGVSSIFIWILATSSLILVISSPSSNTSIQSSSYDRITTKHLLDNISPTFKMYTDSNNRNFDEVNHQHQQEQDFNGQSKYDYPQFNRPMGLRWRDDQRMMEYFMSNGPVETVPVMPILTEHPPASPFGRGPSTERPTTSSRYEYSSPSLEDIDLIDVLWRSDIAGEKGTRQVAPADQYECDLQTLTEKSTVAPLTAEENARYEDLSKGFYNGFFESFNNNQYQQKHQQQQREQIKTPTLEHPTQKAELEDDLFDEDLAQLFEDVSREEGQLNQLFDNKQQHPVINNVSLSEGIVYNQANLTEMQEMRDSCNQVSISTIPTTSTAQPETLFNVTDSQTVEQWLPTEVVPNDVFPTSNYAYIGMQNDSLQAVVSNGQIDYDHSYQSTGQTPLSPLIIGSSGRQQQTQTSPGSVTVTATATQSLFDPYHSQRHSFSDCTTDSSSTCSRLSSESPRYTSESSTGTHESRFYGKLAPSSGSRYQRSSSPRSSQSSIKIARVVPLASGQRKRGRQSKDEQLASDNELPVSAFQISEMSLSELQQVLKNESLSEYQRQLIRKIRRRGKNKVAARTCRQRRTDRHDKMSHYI

BJ [6] = test: cytotoxicity toward BJ-TERT-LT-ST fibroblasts, dose response, cell-based, RAS-independent, luminescence (AID 1935); assay type: functional; conditions: Homo sapiens;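 note: BJ fibroblasts immortalized with TERT plus LT and ST oncogenes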
BJ [7] = test: cytotoxicity toward Ras-transformed BJeLR fibroblasts, dose response, cell-based, alamar blue fluorescence, cherrypicked samples (AID 2631); assay type: functional; conditions: Homo sapiens;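 note: confirmatory dose-response assay in RAS-dependent BJ fibroblasts engineered with TERT, LT and ST, with cytotoxicity read by fluorescence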
[8] = cytotoxicity toward DRD oncogenic fibroblasts, dose response, cell-based, non-viral oncogenic, luminescence (AID 1934); assay type: functional; conditions: Homo sapiens
[9] = Luminescence Cell-Based Dose Retest to Confirm Inhibitors of Cancer Stem Cells. [Related pubchem assays (depositor defined):AID2717, AID2721]; assay type: functional; conditions: Homo sapiens
Vero = test: cells; assay type: functional; conditions: Chlorocebus sabaeus
BJ [10] = test: cells; assay type: functional, cell-based; conditions: Homo sapiens
BJ [11] = test: cytotoxicity toward BJ-TERT fibroblasts, dose response, cell-based, RAS-independent, luminescence (AID 1933); assay type: functional; conditions: Homo sapiens
Estrogen receptor beta = Estrogen receptor beta (Homo sapiens, UniProt Q92731); test: ERβ–SRC-3 coactivator interaction inhibitors, confirmation, orthogonal assay, biochemical, ELISA, streptavidin-HRP readout (AID 1060)
Estrogen receptor beta, sequence (Q92731 whole entry): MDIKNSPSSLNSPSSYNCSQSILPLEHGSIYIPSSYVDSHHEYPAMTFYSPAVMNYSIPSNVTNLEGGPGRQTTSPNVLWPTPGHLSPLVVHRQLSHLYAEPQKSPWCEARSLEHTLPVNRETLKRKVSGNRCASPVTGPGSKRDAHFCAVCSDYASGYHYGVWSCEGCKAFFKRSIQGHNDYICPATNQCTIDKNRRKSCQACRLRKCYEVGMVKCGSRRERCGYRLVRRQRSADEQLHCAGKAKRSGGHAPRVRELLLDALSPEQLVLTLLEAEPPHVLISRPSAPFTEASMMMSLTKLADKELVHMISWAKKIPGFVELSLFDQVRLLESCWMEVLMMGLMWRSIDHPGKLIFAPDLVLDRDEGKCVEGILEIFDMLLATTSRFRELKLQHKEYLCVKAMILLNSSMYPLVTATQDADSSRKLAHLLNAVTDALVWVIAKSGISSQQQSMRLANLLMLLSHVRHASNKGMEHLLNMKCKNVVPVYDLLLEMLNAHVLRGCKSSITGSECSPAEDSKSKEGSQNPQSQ

[12] = cytotoxicity toward NIH3T3 fibroblasts, dose response, counter-screen, cell-based, ATP luminescence, mouse fibroblasts (AID 2010); assay type: functional;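 note: cells exposed to compound for about 90 hours before reading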
[13] = inhibitors of intracellular T. cruzi replication, confirmation, NIH3T3 host cells, beta-gal luminescence (AID 2044); assay type: functional, cell-based;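 note: intracellular parasites grown in NIH/3T3 mouse fibroblasts as host cells; luminescent beta-galactosidase reporter signal from transgenic T. cruzi replicating inside host cells; inhibitors lower the luminescence signal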
Prothrombin = Prothrombin (Homo sapiens, UniProt P00734); test: Thrombin 1536 HTS Dose Response Confirmation. [Related pubchem assays: 1046 (Thrombin 1536 HTS; hits were confirmed in this assay)]; assay type: functional
[14] = target: T2, DNA repair protein RAD52 homolog (Homo sapiens, UniProt P43351); assay type: functional, biochemical
T2 sequence (P43351 whole entry): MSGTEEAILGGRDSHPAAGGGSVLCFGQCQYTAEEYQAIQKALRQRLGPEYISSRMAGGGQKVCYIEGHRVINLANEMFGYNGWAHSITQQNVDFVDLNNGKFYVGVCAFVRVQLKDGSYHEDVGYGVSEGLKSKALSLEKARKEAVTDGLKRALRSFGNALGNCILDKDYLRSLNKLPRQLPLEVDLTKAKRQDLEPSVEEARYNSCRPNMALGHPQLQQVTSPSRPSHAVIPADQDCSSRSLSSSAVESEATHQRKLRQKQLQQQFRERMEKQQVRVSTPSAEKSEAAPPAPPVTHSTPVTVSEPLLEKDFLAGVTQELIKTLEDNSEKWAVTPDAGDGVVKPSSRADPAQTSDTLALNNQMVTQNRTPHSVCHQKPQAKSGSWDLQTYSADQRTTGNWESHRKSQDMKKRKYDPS

[15] = target: DNA dC->dU-editing enzyme APOBEC-3G (Homo sapiens, UniProt Q9HC16); test: Dose Response confirmation of small molecule APOBEC3G DNA Deaminase Inhibitors via a fluorescence-based single-stranded DNA deaminase assay. [Related pubchem assays (depositor defined):AID493012, AID493028]; assay type: functional
DNA dC->dU-editing enzyme APOBEC-3G, sequence (Q9HC16 whole entry): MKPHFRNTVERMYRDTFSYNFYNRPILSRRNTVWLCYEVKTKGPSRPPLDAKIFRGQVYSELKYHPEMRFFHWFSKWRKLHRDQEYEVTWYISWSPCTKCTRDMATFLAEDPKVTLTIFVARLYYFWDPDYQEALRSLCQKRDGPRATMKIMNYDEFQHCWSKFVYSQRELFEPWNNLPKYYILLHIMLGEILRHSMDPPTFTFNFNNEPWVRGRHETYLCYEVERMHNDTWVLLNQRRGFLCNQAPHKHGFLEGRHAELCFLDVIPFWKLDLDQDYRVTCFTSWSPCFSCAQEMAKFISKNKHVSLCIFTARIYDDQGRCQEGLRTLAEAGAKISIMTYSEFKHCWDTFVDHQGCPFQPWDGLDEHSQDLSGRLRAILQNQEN

[16] = target: DNA dC->dU-editing enzyme APOBEC-3A (Homo sapiens, UniProt P31941); test: APOBEC3A DNA deaminase inhibitors, dose response, biochemical (AID 504722); assay type: functional
DNA dC->dU-editing enzyme APOBEC-3A, sequence (P31941 whole entry): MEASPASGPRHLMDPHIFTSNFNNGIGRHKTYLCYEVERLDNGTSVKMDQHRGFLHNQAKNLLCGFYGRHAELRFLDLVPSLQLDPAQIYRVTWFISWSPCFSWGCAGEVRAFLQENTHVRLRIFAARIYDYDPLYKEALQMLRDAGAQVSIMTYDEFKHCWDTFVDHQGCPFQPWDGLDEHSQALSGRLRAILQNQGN

Large T antigen = Large T antigen (Simian virus 40, UniProt P03070); assay type: functional, Betapolyomavirus macacae;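 note: Confirmatory-stage PubChem screen for compounds that inhibit SV40 T antigen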
Large T antigen, sequence (P03070 whole entry): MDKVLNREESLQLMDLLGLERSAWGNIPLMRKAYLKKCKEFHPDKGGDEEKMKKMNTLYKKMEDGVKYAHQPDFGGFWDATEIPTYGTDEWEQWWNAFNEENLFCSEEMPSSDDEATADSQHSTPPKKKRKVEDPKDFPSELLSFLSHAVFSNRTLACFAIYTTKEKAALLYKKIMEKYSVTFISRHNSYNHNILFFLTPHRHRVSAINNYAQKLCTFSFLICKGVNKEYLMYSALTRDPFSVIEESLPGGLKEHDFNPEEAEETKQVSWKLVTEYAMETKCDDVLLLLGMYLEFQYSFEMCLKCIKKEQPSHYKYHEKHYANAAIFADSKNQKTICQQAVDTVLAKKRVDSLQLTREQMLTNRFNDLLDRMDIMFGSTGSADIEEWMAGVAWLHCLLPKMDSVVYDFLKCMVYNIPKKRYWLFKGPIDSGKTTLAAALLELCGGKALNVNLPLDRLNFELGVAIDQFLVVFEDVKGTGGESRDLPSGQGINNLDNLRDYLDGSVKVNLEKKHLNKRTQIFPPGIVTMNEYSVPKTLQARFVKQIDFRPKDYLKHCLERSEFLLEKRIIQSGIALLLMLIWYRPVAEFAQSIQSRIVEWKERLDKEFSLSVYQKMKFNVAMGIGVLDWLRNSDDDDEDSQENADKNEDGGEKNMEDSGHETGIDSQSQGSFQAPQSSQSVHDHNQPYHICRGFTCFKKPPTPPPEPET

Coagulation factor XII = target: T3, Coagulation factor XII (Homo sapiens, UniProt P00748); assay type: functional;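 note: activated factor XIIa alpha cleaving a fluorogenic AMC peptide substrate; inhibitor potency from loss of enzyme activity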
T3 sequence (P00748 whole entry): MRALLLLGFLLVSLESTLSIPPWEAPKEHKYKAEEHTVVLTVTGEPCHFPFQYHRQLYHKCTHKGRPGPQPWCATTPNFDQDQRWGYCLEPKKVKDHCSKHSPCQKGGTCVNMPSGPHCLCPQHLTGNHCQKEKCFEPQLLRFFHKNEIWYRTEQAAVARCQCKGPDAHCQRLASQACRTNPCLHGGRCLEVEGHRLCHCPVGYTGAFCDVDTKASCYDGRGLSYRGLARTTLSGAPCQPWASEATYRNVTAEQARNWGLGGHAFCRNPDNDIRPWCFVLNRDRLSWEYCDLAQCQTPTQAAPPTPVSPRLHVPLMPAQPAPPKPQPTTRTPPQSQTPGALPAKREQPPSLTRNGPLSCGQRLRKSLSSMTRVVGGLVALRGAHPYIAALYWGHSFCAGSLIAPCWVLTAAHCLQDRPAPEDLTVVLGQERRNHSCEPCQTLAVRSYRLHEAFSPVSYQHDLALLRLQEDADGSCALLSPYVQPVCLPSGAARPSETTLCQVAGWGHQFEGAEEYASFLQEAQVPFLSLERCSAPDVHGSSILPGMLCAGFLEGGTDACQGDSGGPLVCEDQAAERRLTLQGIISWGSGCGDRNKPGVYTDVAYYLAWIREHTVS

[17] = target: T4, Rac GTPase-activating protein 1 (Homo sapiens, UniProt Q9H0H5); test: MgcRacGAP GTPase-activating activity inhibitors, confirmation, biochemical, ADP Hunter fluorescence, primary and confirmatory (AID 624330); assay type: functional
T4 sequence (Q9H0H5 whole entry): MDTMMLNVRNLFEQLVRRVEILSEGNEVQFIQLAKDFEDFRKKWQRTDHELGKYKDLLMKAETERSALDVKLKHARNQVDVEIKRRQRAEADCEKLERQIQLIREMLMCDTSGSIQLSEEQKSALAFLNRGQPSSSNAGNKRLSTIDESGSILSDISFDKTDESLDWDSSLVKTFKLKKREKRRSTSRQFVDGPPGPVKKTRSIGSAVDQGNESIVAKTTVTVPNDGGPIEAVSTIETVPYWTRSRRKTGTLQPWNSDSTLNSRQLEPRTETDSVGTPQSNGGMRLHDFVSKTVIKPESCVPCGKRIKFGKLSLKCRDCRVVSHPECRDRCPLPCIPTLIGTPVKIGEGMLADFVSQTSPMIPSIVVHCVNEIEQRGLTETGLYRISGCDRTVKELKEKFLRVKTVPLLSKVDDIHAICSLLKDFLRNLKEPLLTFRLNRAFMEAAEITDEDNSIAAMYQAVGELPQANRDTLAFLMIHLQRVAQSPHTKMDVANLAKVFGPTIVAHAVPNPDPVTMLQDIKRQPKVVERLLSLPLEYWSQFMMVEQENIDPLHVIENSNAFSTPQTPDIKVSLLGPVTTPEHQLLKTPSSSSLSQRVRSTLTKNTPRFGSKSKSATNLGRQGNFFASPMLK

[18] = P. falciparum ATP4 D1247Y mutant growth inhibitors, dose response, NITD609-resistant line, SYBR Green, dry powder (AID 1159571); assay type: functional, cell-based;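 note: parasites synchronized at ring stage by sorbitol before testing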
[19] = P. falciparum Dd2 growth inhibitors, dose response, SYBR Green, cherry-picked samples (AID 1159567); assay type: functional, cell-based
[20] = P. falciparum 3D7-ScDHODH growth inhibitors, dose response, SYBR Green, dry powder samples (AID 1159570); assay type: functional, cell-based;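 note: parasite growth measured after 72 hours of compound exposure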
[21] = P. falciparum Dd2 growth inhibitors, dose response, SYBR Green, dry powder samples (AID 1159566); assay type: functional, cell-based;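 note: potency for growth inhibition with lower SYBR green DNA signal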

Cytochrome P450 3A4, sequence (P08684 whole entry): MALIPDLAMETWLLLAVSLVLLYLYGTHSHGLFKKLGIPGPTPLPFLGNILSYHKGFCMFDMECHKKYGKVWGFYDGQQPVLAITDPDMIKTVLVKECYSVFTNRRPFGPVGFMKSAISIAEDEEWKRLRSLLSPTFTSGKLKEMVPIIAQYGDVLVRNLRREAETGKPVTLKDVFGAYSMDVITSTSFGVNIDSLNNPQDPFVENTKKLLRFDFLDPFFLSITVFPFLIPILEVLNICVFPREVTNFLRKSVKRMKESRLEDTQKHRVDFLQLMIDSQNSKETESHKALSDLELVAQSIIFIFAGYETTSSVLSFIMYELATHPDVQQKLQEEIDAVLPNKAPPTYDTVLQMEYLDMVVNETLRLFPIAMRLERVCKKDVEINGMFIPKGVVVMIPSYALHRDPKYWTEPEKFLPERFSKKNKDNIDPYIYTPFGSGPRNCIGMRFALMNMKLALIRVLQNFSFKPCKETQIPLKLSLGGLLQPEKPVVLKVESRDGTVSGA

For `Cc1cc(=O)cc2oc3cc(N)c(-c4c(C)cc(O)cc4O)c(C)c3nc1-2`, the AC50 (Cytochrome P450 3A4) was 39.8 µM (inconclusive).

In the case of `Cc1cccc(N(C(=O)CCC(=O)Nc2ccccn2)C(C(=O)NC(C)C)c2ccc(O)cc2)c1` (stereo unspecified), the EC50 [1] is reported as > 50 µM (active).

In the case of `Cc1cc(=O)oc2c(CN(C)Cc3ccccc3)c(O)ccc12`, the EC50 [1] is reported as > 50 µM (active).

With `Cc1cc(Oc2ccccc2)nc(SCC(=O)Nc2ccc(Cl)c(Cl)c2)n1` the IC50 [2] was 10.4 µM (inactive) and the IC50 [3] was > 69.5 µM (inactive).

In the case of `COC(=O)[C@@H]1C[C@@H]2CC[C@@H](O)C[C@@H]2N1Cc1ccc(C(F)(F)F)cc1`, the AC50 (Cytochrome P450 3A4) is reported as 10 µM (inconclusive).

For `CC(C)OC(=O)c1ccc(NC(=O)c2cncc(Br)c2)cc1`, the CC50 [4] was > 50 µM (active) and the IC50 [5] was > 100 µM (active).

In the case of `COc1cc(OC)cc(-c2c[nH]nc2N)c1`, the IC50 [2] is reported as > 69.5 µM (inactive).

With `COc1cc(OC)cc(-c2cn[nH]c2N)c1` the IC50 [3] was > 69.5 µM (inactive).

In the case of `COc1ccccc1C1CN(c2ccc(F)cc2F)N=C1c1cccs1` (stereo unspecified), the EC50 [1] is reported as > 50 µM (active) and the IC50 (Protein skinhead-1) is reported as > 100 µM (inactive).

For `CCCN1C/C(=C/c2ccc3c(c2)OCO3)C(=O)/C(=C/c2ccc3c(c2)OCO3)C1`, the EC50 (BJ [6]) was 2.94 µM (inconclusive), the EC50 (BJ [7]) was 0.582 µM (inconclusive) and the EC50 [8] was 4.99 µM (active). The IC50 [2] was > 69.5 µM (inactive), the AC50 [9] was 0.766 µM (active) and the CC50 (Vero) was 9.59 µM (active). The EC50 (BJ [10]) was 14.9 µM (inconclusive), the EC50 (BJ [11]) was 4.04 µM (inconclusive) and the IC50 [3] was 19.6 µM (inactive).

With `CC1(C)C(=O)Nc2ccccc2N1C(=O)COc1ccc(S(=O)(=O)N2CCOCC2)cc1Cl` the IC50 (Estrogen receptor beta) was < 0.023 µM (not active).

For `Cc1cccc(C(=N)NOC(=O)N2CCOCC2)c1`, the IC50 [2] was > 69.5 µM (inactive), the EC50 [12] was > 60 µM (not active) and the IC50 [3] was > 69.5 µM (inactive). For the same compound, the EC50 [13] was 2.63 µM (active).

For `COc1cccc2cc(C(=O)NCC3CCCO3)c(=O)oc12` (stereo unspecified), the IC50 (Prothrombin) was > 50 µM (not active).

With `Cc1cc[n+](CC(=O)c2ccc(NC(=O)c3ccccc3)cc2)cc1` the EC50 [1] was > 50 µM (active).

For `CCCCc1nc2ccccc2c(NC(=O)CNC(C)(C)C)c1CCC`, the IC50 (Prothrombin) was > 50 µM (not active).

For `CN(C)CCCn1c(=S)[nH]c2sc3c(c2c1=O)CCCC3`, the AC50 [14] was 5.83 µM (active) and the AC50 [9] was > 195 µM (inactive).

In the case of `COc1ccc(/C=N/n2c(S)nnc2-c2cc(C)[nH]n2)cc1`, the IC50 [15] is reported as 3.83 µM (active) and the IC50 [16] is reported as > 100 µM (inactive).

With `CC(/C=N/n1c(S)nnc1-c1ccncc1)=C\c1ccco1` the IC50 (Large T antigen) was 45 µM (active), the IC50 [15] was 2.71 µM (active) and the IC50 [16] was > 100 µM (inactive).

For `CN1C(=O)/C(=N/OC(=O)c2ccccc2)c2ccccc21`, the IC50 (Coagulation factor XII) was 4.93 µM (active) and the IC50 (Prothrombin) was 5.05 µM (active).

In the case of `Sc1nnc(-c2ccncc2)n1/N=C/C=C/c1ccco1`, the IC50 [17] is reported as 81.9 µM (active), the IC50 (Coagulation factor XII) is reported as 45.3 µM (active) and the IC50 [15] is reported as 2.54 µM (active). The IC50 [16] was 26.7 µM (active).

For `CC(/C=C(\O)c1ccc(C)o1)=N\c1ccc2c(c1)OCO2`, the IC50 [5] was > 100 µM (active).

In the case of `O=C(c1ccc(F)cc1)N1CC(=O)N2[C@H](C1)[C@@H](c1ccc(-c3cccnc3)cc1)[C@@H]2CO`, the AC50 [18] is reported as 0.542 µM (active), the AC50 [19] is reported as 0.439 µM (active) and the AC50 [20] is reported as 0.786 µM (active). The AC50 [21] was 0.42 µM (active).

For `COc1ccc(/N=C2\C(=O)Nc3ccccc32)cc1`, the IC50 [5] was > 100 µM (active).

With `CSc1nc(-c2ccco2)nn1C(=O)c1ccccc1` the IC50 (Prothrombin) was 0.082 µM (active).

With `CCOC(=O)c1cn[nH]c1N` the IC50 [5] was > 100 µM (active).

In the case of `COc1ccc(-c2coc3c(O)c(OC)ccc3c2=O)cc1` [RETUSIN 7-METHYL ETHER], the AC50 (Cytochrome P450 3A4) is reported as 31.6 µM (inconclusive).
